Source: PubChem BioAssay (NCI)
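Abbreviation: GI50, concentration required for 50% inhibition of growth. The concentration for full growth arrest is given as TGI.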

Tests used:
Experiment in all cases: NCI tumour cell line growth inhibition, 384-well format
U251 glioblastoma = test system: U251 glioblastoma
OVCAR-5 ovarian = test system: OVCAR-5 ovarian
SF-268 CNS = test system: SF-268 CNS
OVCAR-8 ovarian = test system: OVCAR-8 ovarian
KM12 colon = test system: KM12 colon
IGROV1 ovarian = test system: IGROV1 ovarian
NCI-H460 NSCLC = test system: NCI-H460 NSCLC
BT-549 breast = test system: BT-549 breast
NCI-H322M lung = test system: NCI-H322M lung
MCF7 breast = test system: MCF7 breast
SK-MEL-28 melanoma = test system: SK-MEL-28 melanoma
A549 NSCLC = test system: A549 NSCLC
CAKI-1 renal = test system: CAKI-1 renal
LOX IMVI melanoma = test system: LOX IMVI melanoma
HS 578T breast = test system: HS 578T breast
MDA-MB-435 melanoma = test system: MDA-MB-435 melanoma
SNB-75 CNS = test system: SNB-75 CNS
HOP-92 NSCLC = test system: HOP-92 NSCLC
SNB-19 CNS = test system: SNB-19 CNS
SR leukemia = test system: SR leukemia
SF-295 CNS = test system: SF-295 CNS
TK-10 renal = test system: TK-10 renal
HCT-116 colon = test system: HCT-116 colon
HT29 colon = test system: HT29 colon
UACC-62 melanoma = test system: UACC-62 melanoma
NCI-H23 lung = test system: NCI-H23 lung
NCI/ADR-RES ovarian = test system: NCI/ADR-RES ovarian
EKVX NSCLC = test system: EKVX NSCLC
HL-60(TB) leukemia = test system: HL-60(TB) leukemia
HOP-62 NSCLC = test system: HOP-62 NSCLC
MDA-MB-468 breast = test system: MDA-MB-468 breast
UACC-257 melanoma = test system: UACC-257 melanoma
SF-539 CNS = test system: SF-539 CNS
DU-145 prostate = test system: DU-145 prostate
HCT-15 colon = test system: HCT-15 colon
RXF 393 renal = test system: RXF 393 renal
M14 melanoma = test system: M14 melanoma
PC-3 prostate = test system: PC-3 prostate
MDA-MB-231 breast = test system: MDA-MB-231 breast
OVCAR-4 ovarian = test system: OVCAR-4 ovarian
A498 renal = test system: A498 renal
RPMI-8226 leukemia = test system: RPMI-8226 leukemia
SN12C renal = test system: SN12C renal
SK-MEL-5 melanoma = test system: SK-MEL-5 melanoma
NCI-H226 lung = test system: NCI-H226 lung
T-47D breast = test system: T-47D breast
OVCAR-3 ovarian = test system: OVCAR-3 ovarian
NCI-H522 lung = test system: NCI-H522 lung
MOLT-4 leukemia = test system: MOLT-4 leukemia
COLO 205 colon = test system: COLO 205 colon
SK-OV-3 ovarian = test system: SK-OV-3 ovarian
MALME-3M melanoma = test system: MALME-3M melanoma
ACHN renal = test system: ACHN renal
HCC-2998 colon = test system: HCC-2998 colon

In the case of `O=C(Oc1ccc([N+](=O)[O-])cc1)N1CCN(Cc2cccc(Oc3ccccc3)c2)CC1`, the GI50 (U251 glioblastoma) is reported as > 100 µM, the TGI (U251 glioblastoma) is reported as > 100 µM and the GI50 (OVCAR-5 ovarian) is reported as > 100 µM. The TGI (OVCAR-5 ovarian) was > 100 µM, the GI50 (SF-268 CNS) was > 100 µM and the TGI (SF-268 CNS) was > 100 µM. For the same compound, the GI50 (OVCAR-8 ovarian) was > 100 µM, the TGI (OVCAR-8 ovarian) was > 100 µM and the GI50 (KM12 colon) was 99.3 µM. For the same compound, the TGI (KM12 colon) was > 100 µM, the GI50 (IGROV1 ovarian) was > 100 µM and the TGI (IGROV1 ovarian) was > 100 µM. The GI50 (NCI-H460 NSCLC) was 21.6 µM, the TGI (NCI-H460 NSCLC) was 59.6 µM and the GI50 (BT-549 breast) was 67.1 µM. The TGI (BT-549 breast) was > 100 µM, the GI50 (NCI-H322M lung) was 46.2 µM and the TGI (NCI-H322M lung) was > 100 µM. For the same compound, the GI50 (MCF7 breast) was 31 µM, the TGI (MCF7 breast) was > 100 µM and the GI50 (SK-MEL-28 melanoma) was > 100 µM. For the same compound, the TGI (SK-MEL-28 melanoma) was > 100 µM, the GI50 (A549 NSCLC) was > 100 µM and the TGI (A549 NSCLC) was > 100 µM. The GI50 (CAKI-1 renal) was > 100 µM, the TGI (CAKI-1 renal) was > 100 µM and the GI50 (LOX IMVI melanoma) was 53.9 µM. The TGI (LOX IMVI melanoma) was > 100 µM, the GI50 (HS 578T breast) was 92.3 µM and the TGI (HS 578T breast) was > 100 µM. For the same compound, the GI50 (MDA-MB-435 melanoma) was > 100 µM, the TGI (MDA-MB-435 melanoma) was > 100 µM and the GI50 (SNB-75 CNS) was > 100 µM. The TGI (SNB-75 CNS) was > 100 µM, the GI50 (HOP-92 NSCLC) was > 100 µM and the TGI (HOP-92 NSCLC) was > 100 µM. For the same compound, the GI50 (SNB-19 CNS) was > 100 µM, the TGI (SNB-19 CNS) was > 100 µM and the GI50 (SR leukemia) was 16.7 µM. For the same compound, the TGI (SR leukemia) was 32.9 µM, the GI50 (SF-295 CNS) was > 100 µM and the TGI (SF-295 CNS) was > 100 µM. For the same compound, the GI50 (TK-10 renal) was 46.7 µM, the TGI (TK-10 renal) was > 100 µM and the GI50 (HCT-116 colon) was 42.7 µM. For the same compound, the TGI (HCT-116 colon) was > 100 µM, the GI50 (HT29 colon) was 51.6 µM and the TGI (HT29 colon) was > 100 µM. For the same compound, the GI50 (UACC-62 melanoma) was > 100 µM, the TGI (UACC-62 melanoma) was > 100 µM and the GI50 (NCI-H23 lung) was 53.8 µM. The TGI (NCI-H23 lung) was > 100 µM, the GI50 (NCI/ADR-RES ovarian) was 27.5 µM and the TGI (NCI/ADR-RES ovarian) was > 100 µM. For the same compound, the GI50 (EKVX NSCLC) was 44.1 µM, the TGI (EKVX NSCLC) was > 100 µM and the GI50 (HL-60(TB) leukemia) was 13.2 µM. For the same compound, the TGI (HL-60(TB) leukemia) was 34.2 µM, the GI50 (HOP-62 NSCLC) was > 100 µM and the TGI (HOP-62 NSCLC) was > 100 µM. The GI50 (MDA-MB-468 breast) was 20.6 µM, the TGI (MDA-MB-468 breast) was > 100 µM and the GI50 (UACC-257 melanoma) was 23.2 µM. For the same compound, the TGI (UACC-257 melanoma) was > 100 µM, the GI50 (SF-539 CNS) was > 100 µM and the TGI (SF-539 CNS) was > 100 µM. For the same compound, the GI50 (DU-145 prostate) was > 100 µM, the TGI (DU-145 prostate) was > 100 µM and the GI50 (HCT-15 colon) was 49.2 µM. For the same compound, the TGI (HCT-15 colon) was > 100 µM, the GI50 (RXF 393 renal) was 48 µM and the TGI (RXF 393 renal) was > 100 µM. The GI50 (M14 melanoma) was > 100 µM, the TGI (M14 melanoma) was > 100 µM and the GI50 (PC-3 prostate) was > 100 µM. For the same compound, the TGI (PC-3 prostate) was > 100 µM, the GI50 (MDA-MB-231 breast) was > 100 µM and the TGI (MDA-MB-231 breast) was > 100 µM. The GI50 (OVCAR-4 ovarian) was 30.9 µM, the TGI (OVCAR-4 ovarian) was > 100 µM and the GI50 (A498 renal) was 42.1 µM. For the same compound, the TGI (A498 renal) was > 100 µM, the GI50 (RPMI-8226 leukemia) was 25.4 µM and the TGI (RPMI-8226 leukemia) was > 100 µM. For the same compound, the GI50 (SN12C renal) was 33.8 µM, the TGI (SN12C renal) was > 100 µM and the GI50 (SK-MEL-5 melanoma) was 18 µM. The TGI (SK-MEL-5 melanoma) was 55.2 µM, the GI50 (NCI-H226 lung) was > 100 µM and the TGI (NCI-H226 lung) was > 100 µM. For the same compound, the GI50 (T-47D breast) was 30.6 µM, the TGI (T-47D breast) was > 100 µM and the GI50 (OVCAR-3 ovarian) was > 100 µM. The TGI (OVCAR-3 ovarian) was > 100 µM, the GI50 (NCI-H522 lung) was 22.9 µM and the TGI (NCI-H522 lung) was > 100 µM. The GI50 (MOLT-4 leukemia) was 41.4 µM, the TGI (MOLT-4 leukemia) was > 100 µM and the GI50 (COLO 205 colon) was > 100 µM. For the same compound, the TGI (COLO 205 colon) was > 100 µM, the GI50 (SK-OV-3 ovarian) was > 100 µM and the TGI (SK-OV-3 ovarian) was > 100 µM. The GI50 (MALME-3M melanoma) was > 100 µM, the TGI (MALME-3M melanoma) was > 100 µM and the GI50 (ACHN renal) was > 100 µM. For the same compound, the TGI (ACHN renal) was > 100 µM, the GI50 (HCC-2998 colon) was 47.3 µM and the TGI (HCC-2998 colon) was > 100 µM.
